# “And” between values parts separate entries of the source, which are not always exact repeats. Equal values may be shown once. “Also recorded” adds a separate entry of the source.
# Tests used:
# [1] = solifenacin 10 mg versus placebo
# Protocol: Safety and tolerability were evaluated based on subject reports, physician observations and examinations, and the performance of standard laboratory tests.
# Tg2576 mouse model of AD = details: in vivo; cited from earlier work
# [2] = in vivo; cited from earlier work
# [3] = Single-blind crossover study in healthy volunteers: maximum tolerated dose and adverse events of rivastigmine given with placebo or active trospium; type: in vivo, human
# Protocol: (§1) In this single-blind crossover study, healthy volunteers were hospitalized at a Phase I Center (Forenap, Rouffach, France) for the once daily oral administration of ascending doses of rivastigmine hydrogen tartrate (“rivastigmine”), (3 mg to a possible maximum of 24 mg in 3 mg increments as tolerated) together with placebo trospium and then with ascending amounts of rivastigmine (3 mg to a possible maximum of 24 mg as tolerated) together with active trospium. Placebo trospium or active trospium (at a fixed dose of 40 mg per day) were given orally once daily 3 hours before rivastigmine administration. Venous blood was collected for the measurement of plasma drug levels at their nominal peaks (approximately 1 hour after rivastigmine administration). Subjects were monitored clinically for 4 hours after drug administration or until all adverse events had subsided.
# [4] = Same study: peak plasma levels of rivastigmine given with placebo or active trospium; type: in vivo, human
# Protocol: as §1
# [5] = cited from earlier work
# [6] = open-label, 1.5 mg up to 6 mg twice daily, 26 weeks; no worsening of motor function; cited from earlier work
# [7] = test system: acetylcholinesterase / butyrylcholinesterase; details: cited from earlier work
# [8] = Birks 2009; Forette 1999; cited from earlier work
# [9] = subject (c), dose above tolerated dose
structure (smiles),measurement,setting,value
"COc1cc2c(cc1OC)C(=O)C(CC1CCN(Cc3ccccc3)CC1)C2 (racemic) [donepezil, (±)-2,3-dihydro-5,6-dimethoxy-2-[[1-(phenylmethyl)-4-piperidinyl]methyl]-1H-inden-1-one]",Adverse events at the tolerated donepezil dose given with placebo solifenacin,"individual subjects, donepezil 5 mg (a, b, c, f), 15 mg (d), 30 mg (e)","no adverse events; also recorded: severe abdominal pain, weakness, moderate anorexia, sweating and dry mouth; also recorded: moderate weakness, mild dizziness and moderate hypersalivation"
same,Adverse events at the tolerated donepezil dose given with 10 mg of solifenacin,"individual subjects, donepezil 10 mg (a, f), 15 mg (b, d), 5 mg (c), 40 mg (e)",moderate nausea and moderate dizziness; also recorded: no adverse events; also recorded: moderate abdominal pain and severe headache
same,Subjects in whom solifenacin co-treatment enabled substantially higher daily doses of donepezil,solifenacin 10 mg versus placebo,4 out of 6
same,Adverse events with 10 mg of donepezil and placebo solifenacin,[9],"severe anorexia, nausea, retching, vomiting, weakness, headache, moderate diarrhea, and mild sweating, dizziness, somnolence, hypersalivation, muscular cramps"
same,Adverse events with 10 mg of donepezil given with 10 mg of solifenacin,[9],severe nausea and retching
same,Increase of the donepezil MTD after donepezil/solifenacin combination,"the other subjects (a), (b), (e), (f)",33-300%
same,Increase of peak donepezil levels with combined therapy,[1],~2.6 fold
same,A-beta deposition in Tg2576 mice,Tg2576 mouse model of AD,did not affect
same,Effect on A-beta and synaptic density parameters at lower doses,Tg2576 mouse model of AD,not effective
same,Learning and memory functions in Tg2576 mice,Tg2576 mouse model of AD,improved
same,Synaptic density in the molecular layer of the dentate gyrus,Tg2576 mouse model of AD,significantly increased
"O=C(O[C@H]1C[C@H]2CC[C@@H](C1)[N+]21CCCC1)C(O)(c1ccccc1)c1ccccc1 [Trospium, 3-(2-hydroxy-2,2-diphenylacetoxy)-spiro[bicyclo[3.2.1]octane-8,1′-pyrrolidin]-1′-ium]",Average plasma half-life of the absorbed amount,[2],about 18 hours
"CCN(C)C(=O)Oc1cccc([C@H](C)N(C)C)c1 [rivastigmine, (S)—N-Ethyl-N-methyl-3-[1-(dimethylamino)ethyl]-phenyl carbamate]",Tolerated dose of rivastigmine given with placebo trospium,"[3]; individual healthy volunteers (a)-(c), once daily oral ascending doses 3 to 24 mg, placebo trospium 3 hours before",9 mg and 15 mg
same,Tolerated dose of rivastigmine given with 40 mg of trospium,"[3]; individual healthy volunteers (a)-(c), once daily oral ascending doses 3 to 24 mg, trospium 40 mg oral 3 hours before",24 mg and 18 mg
same,Adverse events at the tolerated rivastigmine dose given with placebo trospium,"[3]; individual subjects, rivastigmine 9 mg (a), 15 mg (b, c)",moderate nausea and mild somnolence; also recorded: mild dry mouth
same,Adverse events at the tolerated rivastigmine dose given with 40 mg of trospium,"[3]; individual subjects, rivastigmine 24 mg (a), 18 mg (b, c)","mild nausea as well as abdominal pain, headache and respiratory difficulty in addition to moderate anorexia; also recorded: mild dry mouth and moderate urinary difficulty"
same,Tolerated rivastigmine dose with 40 mg trospium as multiple of the maximum recommended single oral dose (6 mg),"[3]; subject (a): 4, subjects (b) and (c): 3",4 times and 3 times
same,Average peak plasma rivastigmine with trospium relative to without trospium,[4]; 88 ng/ml versus 30.7 ng/ml,2.9 times
same,Average peak plasma rivastigmine with trospium relative to literature value,[4]; 88 ng/ml versus about 12 ng/ml reported,~7.3 times
same,Average peak plasma concentration of rivastigmine given without trospium,[4]; average of 2 subjects,30.7 ng/mL
same,Peak plasma (maximum tolerated) concentration of rivastigmine given with placebo trospium,"[4]; venous blood about 1 hour after 15 mg rivastigmine, individual subjects (b), (c)",53 ng/mL and 8.3 ng/mL
same,Peak plasma (maximum tolerated) concentration of rivastigmine given with 40 mg of trospium,"[4]; venous blood about 1 hour after rivastigmine 24 mg (a) or 18 mg (b, c), individual subjects",39 ng/mL and 94 ng/mL and 131 ng/mL
same,Benefits on cognitive and global measures relevant to dementia,[5]; patients with dementias of the Alzheimer type,"small, but statistically significant, benefits"
same,Cognitive improvement in patients with Alzheimer's disease on doubling the dose,"[5]; skin patches instead of immediate release tablets, without increasing side effects",significantly increased the amount of cognitive improvement
same,Cognitive functions in PD patients with dementia,[6],may improve the cognitive functions
same,Affinity / selectivity for acetylcholinesterase versus butyrylcholinesterase,[7],inhibits both enzymes with similar affinity
same,Reported average maximum tolerated single oral dose of rivastigmine,[8],about 4.5 mg

# — patent US9913836B2, “Anticholinergic neuroprotective composition and methods” (priority 2012, dated 2018)
